Legend:
Assay type in all cases: cell-based
[1] = target: T1, CRTH2 (Homo sapiens, UniProt Q9Y5Y4); assay: FLIPR functional screen; conditions: antagonist mode
T1 construct: Millipore

[2] = target: T2, EP3 (Homo sapiens, UniProt P43115); assay: FLIPR functional screen; conditions: antagonist mode
T2 construct: Millipore

[3] = target: T3, NK3 (Homo sapiens, UniProt P29371); assay: FLIPR functional screen; conditions: antagonist mode
T3 construct: Millipore

[4] = target: T4, CCR10 (Homo sapiens, UniProt P46092); assay: FLIPR functional screen; conditions: antagonist mode
T4 construct: Millipore

[5] = target: T5, CCR4 (Homo sapiens, UniProt P51679); assay: FLIPR functional screen; conditions: antagonist mode
T5 construct: Millipore

[6] = target: T6, CHEMR23 (Homo sapiens, UniProt Q99788); assay: FLIPR functional screen; conditions: antagonist mode
T6 construct: Millipore

[7] = target: T7, S1P1 (Homo sapiens, UniProt P21453); assay: FLIPR functional screen; conditions: antagonist mode
T7 construct: Millipore
T7 sequence (P21453 whole entry, species assumed): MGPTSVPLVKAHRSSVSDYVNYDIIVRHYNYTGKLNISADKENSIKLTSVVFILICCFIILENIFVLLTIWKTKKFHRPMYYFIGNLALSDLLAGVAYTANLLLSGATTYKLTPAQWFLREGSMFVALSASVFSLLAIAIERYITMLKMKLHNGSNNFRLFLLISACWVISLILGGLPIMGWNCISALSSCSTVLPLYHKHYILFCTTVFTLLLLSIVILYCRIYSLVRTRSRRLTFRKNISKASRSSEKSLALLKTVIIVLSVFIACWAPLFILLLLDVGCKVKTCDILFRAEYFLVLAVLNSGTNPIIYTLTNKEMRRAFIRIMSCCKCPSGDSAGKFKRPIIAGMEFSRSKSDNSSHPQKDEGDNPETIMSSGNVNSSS

[8] = target: T8, H2 (Homo sapiens, UniProt P25021); assay: FLIPR functional screen; conditions: antagonist mode
T8 construct: Millipore
T8 sequence (P25021 whole entry): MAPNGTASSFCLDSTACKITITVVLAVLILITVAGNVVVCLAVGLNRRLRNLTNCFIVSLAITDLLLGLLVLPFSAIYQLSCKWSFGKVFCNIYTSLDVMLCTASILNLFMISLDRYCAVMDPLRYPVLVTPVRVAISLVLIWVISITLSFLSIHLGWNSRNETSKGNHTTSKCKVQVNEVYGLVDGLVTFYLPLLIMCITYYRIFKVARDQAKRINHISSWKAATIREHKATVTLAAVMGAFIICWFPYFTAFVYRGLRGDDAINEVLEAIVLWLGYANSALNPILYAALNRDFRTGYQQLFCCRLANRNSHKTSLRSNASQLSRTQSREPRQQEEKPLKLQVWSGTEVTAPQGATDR

[9] = target: T9, RDKR2 (Homo sapiens, UniProt P30411); assay: FLIPR functional screen; conditions: antagonist mode
T9 construct: Millipore

[10] = target: T10, CB2 (Homo sapiens, UniProt P34972); assay: FLIPR functional screen; conditions: antagonist mode
T10 construct: Millipore

[11] = target: T11, GIPR (Homo sapiens, UniProt P48546); assay: FLIPR functional screen; conditions: antagonist mode
T11 construct: Millipore

[12] = target: T12, EP2 (Homo sapiens, UniProt P43116); assay: FLIPR functional screen; conditions: antagonist mode
T12 construct: Millipore

[13] = target: T13, VPAC2 (Homo sapiens, UniProt P41587); assay: FLIPR functional screen; conditions: antagonist mode
T13 construct: Millipore

[14] = target: T14, MC2 (Homo sapiens, UniProt Q01718); assay: FLIPR functional screen; conditions: antagonist mode
T14 construct: Millipore
T14 sequence (Q01718 whole entry): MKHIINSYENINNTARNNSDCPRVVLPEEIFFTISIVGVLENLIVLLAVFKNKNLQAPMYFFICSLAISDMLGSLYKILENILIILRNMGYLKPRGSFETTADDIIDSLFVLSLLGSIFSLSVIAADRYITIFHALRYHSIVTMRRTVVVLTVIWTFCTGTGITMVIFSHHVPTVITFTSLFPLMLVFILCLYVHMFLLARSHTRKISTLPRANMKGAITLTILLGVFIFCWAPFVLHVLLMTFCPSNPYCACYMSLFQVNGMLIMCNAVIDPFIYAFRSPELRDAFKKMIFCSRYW
T14 sequence (Q8TCY5 whole entry partner): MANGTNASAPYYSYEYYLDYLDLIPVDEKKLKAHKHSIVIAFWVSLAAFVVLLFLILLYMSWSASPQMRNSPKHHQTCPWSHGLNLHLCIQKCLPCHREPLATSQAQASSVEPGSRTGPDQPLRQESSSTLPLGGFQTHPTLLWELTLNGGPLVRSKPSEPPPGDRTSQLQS

[15] = target: T15, AT1 (Homo sapiens, UniProt P30556); assay: FLIPR functional screen; conditions: antagonist mode
T15 construct: purchased Millipore (outsourced screen)

[16] = target: T16, CCR3 (Homo sapiens, UniProt P51677); assay: FLIPR functional screen; conditions: antagonist mode
T16 construct: Millipore
T16 sequence (P51677 whole entry, species assumed): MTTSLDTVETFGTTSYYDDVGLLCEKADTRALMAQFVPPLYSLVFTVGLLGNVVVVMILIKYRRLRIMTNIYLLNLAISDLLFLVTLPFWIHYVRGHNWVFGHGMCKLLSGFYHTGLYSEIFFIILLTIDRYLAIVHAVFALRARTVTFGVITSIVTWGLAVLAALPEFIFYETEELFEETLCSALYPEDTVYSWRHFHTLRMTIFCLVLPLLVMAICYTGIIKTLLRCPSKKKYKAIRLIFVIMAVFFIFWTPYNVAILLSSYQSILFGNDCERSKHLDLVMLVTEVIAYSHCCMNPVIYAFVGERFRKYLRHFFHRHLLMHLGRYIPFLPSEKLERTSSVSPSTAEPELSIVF

[17] = target: T17, OX2 (Homo sapiens, UniProt O43614); assay: FLIPR functional screen; conditions: antagonist mode
T17 construct: Millipore

[18] = target: T18, ETA (Homo sapiens, UniProt P25101); assay: FLIPR functional screen; conditions: antagonist mode
T18 construct: Millipore
T18 sequence (P25101 21-427): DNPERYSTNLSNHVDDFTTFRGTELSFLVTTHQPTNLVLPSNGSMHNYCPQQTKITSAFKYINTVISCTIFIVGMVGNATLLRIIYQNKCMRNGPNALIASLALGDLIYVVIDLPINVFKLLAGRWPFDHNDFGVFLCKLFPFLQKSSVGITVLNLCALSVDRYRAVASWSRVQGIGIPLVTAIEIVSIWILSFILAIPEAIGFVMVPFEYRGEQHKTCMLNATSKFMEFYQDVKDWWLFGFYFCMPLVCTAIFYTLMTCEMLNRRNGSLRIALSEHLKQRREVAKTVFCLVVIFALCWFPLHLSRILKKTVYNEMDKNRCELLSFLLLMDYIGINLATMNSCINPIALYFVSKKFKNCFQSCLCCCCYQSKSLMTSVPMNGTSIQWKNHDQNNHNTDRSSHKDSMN

[19] = target: T19, EP4 (Homo sapiens, UniProt P35408); assay: FLIPR functional screen
T19 construct: SE302 cells that express endogenous EP4; endogenous in cells; host or cells: SE302 cells
T19 sequence (P35408 whole entry): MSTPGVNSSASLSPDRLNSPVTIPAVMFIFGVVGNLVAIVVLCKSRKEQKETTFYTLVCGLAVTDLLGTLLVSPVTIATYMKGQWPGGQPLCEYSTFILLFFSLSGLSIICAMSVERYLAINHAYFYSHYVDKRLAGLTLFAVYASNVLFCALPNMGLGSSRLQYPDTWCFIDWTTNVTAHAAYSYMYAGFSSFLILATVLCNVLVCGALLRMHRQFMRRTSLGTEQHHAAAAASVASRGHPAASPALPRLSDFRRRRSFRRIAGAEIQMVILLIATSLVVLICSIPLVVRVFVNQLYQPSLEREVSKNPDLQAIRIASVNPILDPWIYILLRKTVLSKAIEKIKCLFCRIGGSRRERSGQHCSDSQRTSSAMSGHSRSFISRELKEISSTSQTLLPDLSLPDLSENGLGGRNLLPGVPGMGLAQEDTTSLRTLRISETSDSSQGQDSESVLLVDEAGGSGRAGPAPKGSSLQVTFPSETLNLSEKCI

[20] = target: T20, CCR1 (Homo sapiens, UniProt P32246); assay: FLIPR functional screen; conditions: antagonist mode
T20 construct: Millipore

[21] = tested on: Mouse CD4+ T cells; assay: IL-23 induced Th17 expansion; conditions: 120 h, anti-TCR/anti-CD28 mAb and IL-23 (30 ng/ml), 5 days, FACS, read-out: IC50 for reduction of IL-23-induced Th17-producing cells
Experimental: IL-23 induced Th17 expansion. CD4^+ T cells were isolated from C57BL/6 mice and activated with anti-TCR (1 μg/ml plate-bound) and anti-CD28 (2 μg/ml soluble) with or without IL-23 (30 ng/ml) for 5 days. IL-17 producing cells were analyzed by IL-17 intracellular staining as described by manufacture (BD).
The effect of ER-819924-01 on IL-23-induced Th17 expansion was studied in vitro (FIG. 9). Mouse CD4^+ T cells were cultured with anti-TCR/anti-CD28 mAb and IL-23 (30 ng/ml) in the presence or absence of ER-819924-01 or anti-PGE2 Ab for 5 days. IL-17 producing T cells were analyzed by FACS of intracellular staining. ER-819924-01 reduced the number of IL-23-induced Th17-producing cells with an IC50 value of ˜10-100 nM.

[22] = target: T21, M2 (Homo sapiens, UniProt P08172); assay: FLIPR functional screen; conditions: antagonist mode
T21 construct: Millipore
T21 sequence (P08172 whole entry): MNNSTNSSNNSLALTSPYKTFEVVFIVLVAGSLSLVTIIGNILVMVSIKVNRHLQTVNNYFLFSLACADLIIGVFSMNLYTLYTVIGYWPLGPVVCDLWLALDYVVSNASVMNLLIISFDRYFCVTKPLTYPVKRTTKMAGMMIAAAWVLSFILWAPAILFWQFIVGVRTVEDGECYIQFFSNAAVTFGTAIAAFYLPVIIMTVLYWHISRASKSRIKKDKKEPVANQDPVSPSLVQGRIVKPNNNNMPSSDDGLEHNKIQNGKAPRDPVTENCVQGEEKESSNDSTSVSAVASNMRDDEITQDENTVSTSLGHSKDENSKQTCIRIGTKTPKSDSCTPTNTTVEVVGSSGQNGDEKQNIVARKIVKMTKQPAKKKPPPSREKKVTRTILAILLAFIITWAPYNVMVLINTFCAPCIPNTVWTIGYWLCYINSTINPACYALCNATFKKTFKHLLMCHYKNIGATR

[23] = target: T22, CYSLT2 (Homo sapiens, UniProt Q9NS75); assay: FLIPR functional screen; conditions: antagonist mode
T22 construct: Millipore

[24] = target: T23, GCGR (Homo sapiens, UniProt P47871); assay: FLIPR functional screen; conditions: antagonist mode
T23 construct: Millipore

[25] = target: T24, IP1 (Homo sapiens, UniProt P43119); assay: FLIPR functional screen; conditions: antagonist mode
T24 construct: Millipore

[26] = target: T25, SST5 (Homo sapiens, UniProt P35346); assay: FLIPR functional screen; conditions: antagonist mode
T25 construct: Millipore

[27] = target: T26, P2Y1 (Homo sapiens, UniProt P47900); assay: FLIPR functional screen; conditions: antagonist mode
T26 construct: Millipore

[28] = target: T27, PAF (Homo sapiens, UniProt P25105); assay: FLIPR functional screen; conditions: antagonist mode
T27 construct: Millipore
T27 sequence (P25105 whole entry): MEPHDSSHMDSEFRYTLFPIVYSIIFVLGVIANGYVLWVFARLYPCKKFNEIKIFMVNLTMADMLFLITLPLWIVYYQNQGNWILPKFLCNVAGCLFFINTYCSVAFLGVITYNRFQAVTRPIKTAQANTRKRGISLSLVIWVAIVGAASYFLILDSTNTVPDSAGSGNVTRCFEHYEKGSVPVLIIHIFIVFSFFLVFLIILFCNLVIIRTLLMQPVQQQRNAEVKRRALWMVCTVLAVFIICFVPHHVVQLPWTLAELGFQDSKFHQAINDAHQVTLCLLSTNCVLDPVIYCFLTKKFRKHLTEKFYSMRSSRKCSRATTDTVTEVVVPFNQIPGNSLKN

[29] = target: T28, GPR68 (Homo sapiens, UniProt Q15743); assay: FLIPR functional screen; conditions: antagonist mode
T28 construct: Millipore

[30] = target: T29, PAR4 (Homo sapiens, UniProt Q96RI0); assay: FLIPR functional screen; conditions: antagonist mode
T29 construct: Millipore
T29 sequence (Q96RI0 18-385): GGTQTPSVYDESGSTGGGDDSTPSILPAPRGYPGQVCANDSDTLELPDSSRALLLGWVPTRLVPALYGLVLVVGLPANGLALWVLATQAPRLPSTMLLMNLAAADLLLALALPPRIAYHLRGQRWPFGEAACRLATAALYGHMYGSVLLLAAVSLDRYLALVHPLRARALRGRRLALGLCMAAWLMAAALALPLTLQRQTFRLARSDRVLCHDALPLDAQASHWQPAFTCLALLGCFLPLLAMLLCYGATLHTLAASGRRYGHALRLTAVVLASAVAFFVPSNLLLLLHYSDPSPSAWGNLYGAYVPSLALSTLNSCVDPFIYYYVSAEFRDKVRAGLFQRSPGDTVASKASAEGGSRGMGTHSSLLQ

[31] = target: T30, BB3 (Homo sapiens, UniProt P32247); assay: FLIPR functional screen; conditions: antagonist mode
T30 construct: Millipore
T30 sequence (P32247 whole entry): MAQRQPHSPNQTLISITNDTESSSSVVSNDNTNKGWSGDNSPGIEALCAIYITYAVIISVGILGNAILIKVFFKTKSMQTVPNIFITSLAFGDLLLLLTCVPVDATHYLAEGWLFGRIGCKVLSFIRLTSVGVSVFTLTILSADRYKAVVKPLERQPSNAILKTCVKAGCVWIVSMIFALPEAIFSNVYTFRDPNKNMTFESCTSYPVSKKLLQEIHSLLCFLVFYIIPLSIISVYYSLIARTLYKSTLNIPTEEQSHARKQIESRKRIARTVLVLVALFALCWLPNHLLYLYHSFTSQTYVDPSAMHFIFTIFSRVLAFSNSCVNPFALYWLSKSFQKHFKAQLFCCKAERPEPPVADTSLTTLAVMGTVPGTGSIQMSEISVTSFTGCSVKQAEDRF

[32] = target: T31, LPA3 (Homo sapiens, UniProt Q9UBY5); assay: FLIPR functional screen; conditions: antagonist mode
T31 construct: Millipore

[33] = target: T32, V1A (Homo sapiens, UniProt P37288); assay: FLIPR functional screen; conditions: antagonist mode
T32 construct: Millipore
T32 sequence (P37288 whole entry): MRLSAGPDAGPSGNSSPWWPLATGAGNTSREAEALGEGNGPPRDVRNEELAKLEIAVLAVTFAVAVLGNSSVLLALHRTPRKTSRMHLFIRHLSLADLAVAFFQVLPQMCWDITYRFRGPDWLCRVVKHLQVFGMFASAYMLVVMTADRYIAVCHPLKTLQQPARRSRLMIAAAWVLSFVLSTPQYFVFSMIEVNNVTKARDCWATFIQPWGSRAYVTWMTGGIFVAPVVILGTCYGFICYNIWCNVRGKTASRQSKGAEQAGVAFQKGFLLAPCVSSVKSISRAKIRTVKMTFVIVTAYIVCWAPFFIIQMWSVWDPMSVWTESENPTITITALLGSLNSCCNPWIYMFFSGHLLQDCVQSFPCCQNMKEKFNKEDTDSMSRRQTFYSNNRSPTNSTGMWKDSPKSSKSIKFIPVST

[34] = target: T33, OPRM1 (Homo sapiens, UniProt P35372); assay: FLIPR functional screen; conditions: antagonist mode
T33 construct: Millipore

[35] = target: T34, GAL1 (Homo sapiens, UniProt P47211); assay: FLIPR functional screen; conditions: antagonist mode
T34 construct: Millipore
T34 sequence (P47211 whole entry): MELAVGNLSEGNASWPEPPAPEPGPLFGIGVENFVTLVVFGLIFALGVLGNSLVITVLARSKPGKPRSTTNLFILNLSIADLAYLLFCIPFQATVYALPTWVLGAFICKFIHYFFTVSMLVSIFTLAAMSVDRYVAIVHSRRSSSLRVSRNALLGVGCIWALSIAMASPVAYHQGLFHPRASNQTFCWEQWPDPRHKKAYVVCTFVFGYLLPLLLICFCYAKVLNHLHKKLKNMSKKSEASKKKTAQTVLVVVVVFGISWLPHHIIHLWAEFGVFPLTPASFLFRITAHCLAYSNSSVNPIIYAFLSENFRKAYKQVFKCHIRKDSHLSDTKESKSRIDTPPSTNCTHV

CCN1C(=O)N2Cc3cc(OC)cc(OC)c3[C@@H](C)C=C2C12CCN(Cc1cccn1C)CC2 [ER-819924-01]
inhibition at 1 µM [1]: 4.1% | inhibition at 1 µM [2]: 7.8% | inhibition at 1 µM [3]: -2.2% | inhibition at 1 µM [4]: 2.2% | inhibition at 1 µM [5]: -13.4% | inhibition at 1 µM [6]: -3.2% | inhibition at 1 µM [7]: 3.9% | inhibition at 1 µM [8]: 1.8% | inhibition at 1 µM [9]: 1.7% | inhibition at 1 µM [10]: 9.3% | inhibition at 1 µM [11]: -14.9% | inhibition at 1 µM [12]: 4.2% | inhibition at 1 µM [13]: -3.7% | inhibition at 1 µM [14]: -1% | inhibition at 1 µM [15]: -1.5% | inhibition at 1 µM [16]: -5.6% | inhibition at 1 µM [17]: 8.8% | inhibition at 1 µM [18]: 9% | activity in FLIPR functional screen versus other GPCR's ([19]; 1 μM, Millipore outsourced data): showed activity only against the EP4 receptor | inhibition at 1 µM ([19]; antagonist mode): 100% | inhibition at 1 µM [20]: -8.2% | IC50 [21]: 0.01 to 0.1 µM | inhibition at 1 µM [22]: 1.5% | inhibition at 1 µM [23]: 4.5% | inhibition at 1 µM [24]: 8.6% | inhibition at 1 µM [25]: 9.8% | inhibition at 1 µM [26]: 0.1% | inhibition at 1 µM [27]: -37.5% | inhibition at 1 µM [28]: 5.4% | inhibition at 1 µM [29]: 13.4% | inhibition at 1 µM [30]: -38.6% | inhibition at 1 µM [31]: 6.2% | inhibition at 1 µM [32]: 9.6% | inhibition at 1 µM [33]: -3.9% | inhibition at 1 µM [34]: 35% | inhibition at 1 µM [35]: 9.1%

Source: US20100305098A1, “METHODS OF USE” (priority 2007, published 2010)
